According to PMC10791743, “Selective CK1α degraders exert antiproliferative activity against a broad range of human cancer cell lines” (Nature Communications, 2024):
pIC50: −log10 of the molar value. Several values for one entry are separate records, joined by “and”; a condition that tells them apart may be missing. Equal entries are not always repeated. Entries after “also recorded” stand apart in the source; their conditions may differ.

Key:
[1] = system: panel of AML and ALL cell lines; assay: CTG viability in a panel of AML and ALL cell lines (Fig. 3a); assay type: cell-based, human
Protocol: The primary screen was performed in 384-well format using the CellTiter Glo (CTG) luminescent cell viability assay (Promega) as previously described. […] After overnight incubation at 37 °C in a humidified 5% CO2 incubator, cells were treated with compounds in dose–response format using a Pintool on a Biomek FX^P Laboratory Automation Workstation (Beckman Coulter). […] Luminescence signal was measured using an EnVision plate reader (PerkinElmer).
HD-MB03 cell line was obtained from Drs. Milde, Witt and Deubzer[52]. HD-MB03 and MB004 cells were grown in a neurobasal medium supplemented with glutamine, streptomycin, penicillin, B27, EGF, bFGF, and heparin as previously described. MB002 and MB004 cells were obtained from Dr Yoon-Jae Cho[54]. MB002 cells were cultured in 80% neurobasal medium supplemented with glutamine, streptomycin, penicillin, B27, and 20% conditioned media from previous passages; EGF, bFGF, and heparin were also added to the medium. MHH-CALL4, NALM-16, MHH-CALL-2 cells were obtained from the German Collection of Microorganisms and Cell Cultures GmbH (DSMZ, Germany). PER-117 cells were obtained from Telethon Kids Institute (Perth, Australia). The cells were cultured in RPMI1640 medium supplemented with 10% FBS (Hyclone), Penicillin/Streptomycin (100 units/mL), and Glutamine (100 µM) except for MHH-CALL-2 cells where 20% FBS were used. […] OCI-AML3 cells were purchased from DSMZ (ACC 690) and cultured in Alpha-MEM media (Invitrogen) supplemented with 20% FBS and 100 U/ml penicillin–streptomycin. […] Cell identity was confirmed by STR profiling using PowerPlex® Fusion System (Promega).

[2] = Plasma stability assay, human; assay type: in vitro ADME; conditions: for Calculated Concentration: 0h standards set to Actual Concentration 100, IS warfarin, replicates
Protocol: (§1) page 32: Aldrich, Saint Louis, MO) were diluted into 0.1 M potassium phosphate buffer (PBS, pH 7.4, KH2PO4, Cat. No: P284-500; K2HPO4, Cat. No: BP363-500, Fisher Scientific, Fair Lawn, NJ) and mixed well. 40 μL of this solution was transferred into the above compounds plates. For the time 0 plate, 3 fold (v:v) cold acetonitrile with warfarin (400 ng/mL) as the internal standard was added to […] and B in PBS, pH 7.4) and no incubation. For the other five time points’ plates, 10 μL NADPH regenerating agent mixer was added to each well to initiate the reaction, the plate was sealed and incubated at 37° C on an orbital shaker (100 rpm) for the required time, followed by quenching of the reaction by adding 3-fold volume of cold acetonitrile with internal standard to each well. The final concentration of each component applied in this reaction was liver microsome protein at 0.5 […] After quenching, all plates were securely sealed and thoroughly mixed at 600 rpm for 10 minutes. Subsequently, centrifugation was performed at 4000 rpm for 20 minutes. The resulting supernatants […] analysis using UPLC–MS/MS. The assessment of metabolic stability involved determining the half- life through a least-squares fit of multiple time points, employing first-order kinetics. Plasma stability assay5: The degradation of human or mouse plasma was assessed by monitoring the gradual reduction of the parent compound over specified time intervals (0, 3, 24, and 48 hours). Human and mouse plasma samples were sourced from GeneTex (Irvine, CA). Test compound stock solutions, prepared at 10 mM in DMSO, were dispensed into triplicate wells of a 96-well microplate using the Labcyte Echo 650 dispenser. For plates, excluding the time 0-hour plate, plasma was […] The plate was sealed, incubated at 37°C on an orbital shaker (100 rpm) for the required duration, and then quenched with cold acetonitrile, incorporating warfarin as the internal standard. In the case of the time 0-hour plate, cold acetonitrile with the internal standard was added to each well before introducing plasma, eliminating page 33: the need for further incubation. Following quenching, all plates were thoroughly mixed at 600 rpm for 10 minutes and centrifuged at 4000 rpm for 20 minutes. Supernatants were transferred to […] MS/MS analysis. Plasma stability was evaluated by determining the half-life through a least-squares fit of multiple time points based on first-order kinetics. Plasma protein binding assay: Test compound stock solutions were prepared at a concentration of 10 mM in DMSO. A Single-Use RED (Rapid Equilibrium Dialysis) device was acquired from Thermo Scientific (Cat. No: 99006, Rockford, IL). The sample preparation for plasma protein binding followed a modified version of Waters' method6. After thawing, plasma was centrifuged at 1000 rpm for 10 minutes to eliminate any particulates. Each compound was then prepared at a concentration of 10 µM in either human or mouse plasma. In the plasma protein binding assessment, 300 µL of spiked plasma solutions were introduced into the sample chamber (indicated by the red ring), while 550 µL of DPBS was added to the adjacent chamber. The plate was sealed and incubated at 37°C on an orbital shaker (100 rpm) for 4 hours. Post -incubation, 50 µL aliquots were withdrawn from each side of the insert and dispensed into a 96 -well storage plate. To create analytically identical sample matrices (matrix matching), an equivalent volume of blank plasma or DPBS was added to the necessary wells, followed by quenching w ith 3-fold (v:v) cold acetonitrile containing warfarin as the internal standard. Subsequently, the sealed plates were well -mixed at 600 rpm for 10 minutes and then centrifuged at 4000 rpm for 20 minutes. Supernatants were transferred to analytical […] Test compound concentrations were quantified in both the buffer and plasma chambers by determining peak areas relative to the internal standard. […]

[3] = Plasma stability assay, mouse; assay type: in vitro ADME; conditions: for Calculated Concentration: 0h standards set to Actual Concentration 100, IS warfarin, replicates
Protocol: as §1

[4] = Homo sapiens, MHHCALL-2 cells, replicate values
[5] = Homo sapiens, MOLM-13, MOLM-13 cells, replicate values
[6] = KASUMI-3 cells, replicate values
[7] = MHHCALL-4 cells, replicate values
[8] = MOLM-13 cells, replicate values
[9] = human plasma, regression of log concentration over time points 0, 3, 24, 48 h
[10] = mouse plasma, regression of log concentration over time points 0, 3, 24, 48 h

Cc1cccc(C(=O)Nc2ccc3c(c2)CN(C2CCC(=O)NC2=O)C3=O)c1 (centres unmarked) [SJ0040]
IC50 ([1]; HNT-34 cells, replicate values): 2 nM (2×) and 4.9 nM
pIC50 [1, 4]: 7.57
pIC50 [1, 5]: 6.90
pIC50 [1, 6]: 7.80 and 7.96 and 7.52
pIC50 [1, 7]: 7.17 and 7.14 and 7.77
pIC50 [1, 8]: 6.87 and 7.02
pIC50 ([1]; NALM16 cells, replicate values): 6.89 and 7.80 and 7.60

O=C1CCC(N2Cc3cc(Nc4noc5ccccc45)ccc3C2=O)C(=O)N1 (centres unmarked) [SJ3149]
Plasma stability ([2]; human): 8.5 h
Plasma stability ([3]; mouse): > 10 h
IC50 values / cytotoxicity in panel of AML and ALL cell lines ([1]; CTG): single digit nanomolar range; also recorded: low nanomolar to sub-nanomolar range
pIC50 ([1]; HNT-34 cells, replicate values): 8.82
pIC50 ([1]; Homo sapiens, HNT-34, HNT-34 cells, replicate values): 9.00
pIC50 ([1]; Homo sapiens, Kasumi-3, KASUMI-3 cells, replicate values): 6.93
pIC50 ([1]; Homo sapiens, MHHCALL4, MHHCALL-4 cells, replicate values): 8.52
pIC50 [1, 4]: 8.70
pIC50 [1, 5]: 8.10
pIC50 [1, 6]: 7.14
pIC50 [1, 7]: 8.40
pIC50 [1, 8]: 7.96 and 8.15

O=C1CCC(N2Cc3cc(Nc4noc5ccccc45)ccc3C2=O)C(=O)N1 (centres unmarked) [SJ001043149-1]
Calculated Concentration ([2]; human plasma, time point 3h): 67.501 and 81.153 and 72.775
Calculated Concentration ([2]; human plasma, time point 24h): 13.370 and 15.407 and 13.318
Calculated Concentration ([2]; human plasma, time point 48h): 1.845 and 2.121 and 1.968
Ke [2, 9]: 0.08114
t(1/2) [2, 9]: 8.5413
Calculated Concentration ([3]; mouse plasma, time point 3h): 89.527 and 94.878 and 96.383
Calculated Concentration ([3]; mouse plasma, time point 24h): 48.667 and 48.995 and 51.103
Calculated Concentration ([3]; mouse plasma, time point 48h): 26.458 and 25.987 and 26.969
Ke [3, 10]: 0.028
t(1/2) [3, 10]: 24.7479
